# From the pKa sets of Baltruschat and Czodrowski (2020)
# Conditions: acidic group
row,SMILES,pKa
1,NC(=O)c1ccc(N)cc1O,9.12
2,Cc1cccc([N+](=O)[O-])c1C(=O)O,2.13
3,[O-]c1cccc2c1-c1cccc(O)c1-2,9.97
4,C[Si](C)(C)c1ccc(C(=O)O)cc1,4.27
5,O=[N+]([O-])c1ccc2c(O)cccc2c1,8.49
6,NC(=O)Nc1[nH]cnc1C(=O)[O-],12.2
7,Oc1cncc2ccccc12,8.68
8,C[Si](C)(C)CCCC(=O)O,4.89
9,Nc1nc[nH+]c(S)c1N,2.21
10,CC(=O)OCC(=N/O)/C(C)=N/O,9.7
11,OC(c1ccncc1)(c1ccncc1)c1ccncc1,11.8
12,NC(=O)C(N)CC(=O)O (configuration not stated),7.95
13,O=C(O)[C@@H]1C[C@@H](O)C[NH2+]1,1.92
14,[NH3+]CC(=O)N1CCC[C@H]1C(=O)O,2.95
15,C[Si](C)(C)c1cccc(C(=O)O)c1,4.24
16,Oc1ccc2ncncc2c1,8.19
17,O=C(O)C(c1ccc(-c2ccccc2)cc1)C(O)Cc1ccccc1 (configuration not stated),4.29
18,Cc1nc(Cc2ccccc2)c(O)o1,10.3
19,O=C(NO)C1CCCCC1,9.87
20,O=C(O)c1cccnn1,3
21,CC[NH+](CC)CC(=N\O)/C(C)=N/O,8.5
22,O=C1CS(=O)(=O)NC(=O)N1,2.7
23,O=[N+]([O-])Cc1ccccc1,6.77
24,CC(=O)CCC(=O)O,4.63
25,CCC1=CC(=O)C=C(CC)C1=NO,8.34
26,N[C@@H](Cc1nc[nH]c1I)C(=O)[O-],12.4

row,SMILES,pKa
1,CCC1C(=O)COC1=O (configuration not stated),4.29
2,COC(=O)CC(C)=O,10.6
3,Cn1c(=O)ccc2ccccc21,-0.71
4,O=C([O-])[C@@H](NCC[NH2+][C@@H](C(=O)[O-])c1ccccc1O)c1ccccc1O,8.76
5,O=C(O)CSC(c1ccccc1)(c1ccccc1)c1ccccc1,4.32
6,Cc1nnc(NS(=O)(=O)c2ccc(O)cc2)s1,5.37
7,O=C(O)c1cccc(Br)c1,3.79
8,Oc1cccc2nccnc12,8.8
9,Sc1[nH+]ccc2ccccc12,-1.9
10,C[N+](C)(C)CCc1ccccc1O,9.57
11,Nc1nc2nc[n-]c2c(N)[n+]1[O-],12
12,N#Cc1cccc(O)c1,8.63
13,CCOc1ccc(O)cc1,10.2
14,O=P([O-])([O-])C([NH2+]Cc1ccncc1)c1ccccc1O (configuration not stated),10.2
15,CC(C)(/C=C/C(=O)O)c1cc([N+](=O)[O-])ccc1O,4.26
16,O=C(O)C(c1ccc(-c2ccccc2)cc1)C(O)C1CCCCC1 (configuration not stated),4.19
17,COC(=O)/C(=N/O)c1ccccc1,8.87
18,CCN(CC)S(=O)(=O)c1ccccc1C(=O)O,2.96
19,O=C1CN(C(=O)c2ccccc2)C(=S)N1,6.5
20,O=C1C[C@H](C(=O)O)[C@@H](C(=O)O)O1,2.26
21,CCCCSCC(=O)O,3.81
22,N#CC(C#N)=C(Br)C(C#N)C#N,2.6
23,CN(CCC[NH+](C)C)C(=O)/C=N/O,8.68
24,CC1NCCc2c1[nH]c1ccc(N)cc21 (configuration not stated),16
25,NNC(=O)c1cccc(N)c1,12.4
26,O/C(=C/[n+]1ccccc1)c1ccccc1,4.8

row,SMILES,pKa
1,Oc1cn[nH+]c2ccccc12,-0.35
2,COc1ccc(O)c([N+](=O)[O-])c1,7.39
3,CN(C)c1cccc(/C(=N\O)C(F)(F)F)c1,9.3
4,O=C(O)[C@H]1CCC[C@H](O)C1,4.82
5,O=C(O)C1CCCC[NH2+]1 (configuration not stated),2.5
6,O=C(Cc1ccccc1)c1cc[n+](Cc2ccc([N+](=O)[O-])cc2)cc1,8.68
7,CCc1cc(O)cc(C)c1Cl,9.6
8,O=C([O-])CNS(=O)(=O)c1ccccc1,11.4
9,COC(=O)[C@H]1[C@@H]2Cc3c4[nH]c5ccccc5c4cc[n+]3C[C@H]2CC[C@H]1O,10.7
10,CCOC(=S)NC(=O)c1ccccc1,7.46
11,COc1ccccc1-c1nnn[nH]1,4.8
12,C=C/C(C)=C/[C@@H](C)C(=O)C[C@@H](O)CC1CC(=O)NC(=O)C1,11.2
13,O=c1cc(-c2ccccc2)oc2cc(O)ccc12,7.39
14,O/N=C/c1ccc2c(c1)OCO2,10.8
15,O=Nc1c(O)ccc2ncsc12,5.43
16,Oc1ccc(F)cc1C[NH+]1CCCCC1,8.81
17,Cc1ccc(C(=O)O)cc1,4.37
18,CC(=O)c1ccc(Cl)cc1,18.1
19,c1ccc(CCNc2ncnc3[nH]ncc23)cc1,4.38
20,C[C@@]12CC(=O)N[C@]1(CCC(=O)[O-])C(=O)NC2=O,8.1
21,COCCNC(=S)S,2.85
22,CC=O,16.8
23,c1ccc(CSc2nc(SCc3ccccc3)c(-c3ccccc3)[nH]2)cc1,10.9
24,CC(=O)Nc1ccc(O)cc1,9.5
25,N#CC(Cc1ccccc1)C(=O)O (configuration not stated),2.24

# Same assay, conditions: basic group
row,SMILES,pKa
1,CCN(CC)Cc1cccc(C)c1[O-],10.9
2,C[n+]1cnccc1[O-],1.84
3,Nc1ccc2c([N+](=O)[O-])cccc2c1,3.16
4,Cc1ccc(C(O)CN)cc1 (configuration not stated),9.06
5,Nc1ccc2[nH]cnc2c1,6.11
6,Nc1ccc2cc([N+](=O)[O-])ccc2c1,2.9
7,NC(=O)Nc1[nH]cnc1C(=O)[O-],4.9
8,Cn1c(-c2ccccc2[O-])nc2ccccc21,8.92
9,C[NH+](C)CCCNc1ccnc2cc([N+](=O)[O-])ccc12,6.77
10,C=Cc1ccncc1,5.62
11,NCC(O)CN,9.64
12,Oc1cncc2ccccc12,4.8
13,CCOc1ccc(/N=C/N(C)C)cc1,9.24
14,c1csc(-c2nccs2)n1,2.76
15,CCNC[Si](C)(C)C,11.1
16,Cc1cc(N[NH3+])nc2ccccc12,2.8
17,C1CC2CCCN2C1,11.7
18,N#Cc1cc(-c2ccccc2)nnc1NCC[NH+]1CCOCC1,0.5
19,c1ccc(-c2ncc[nH]2)nc1,5.46
20,Cc1ccc(-c2nnc(-c3ccccc3)o2)cc1,1.81
21,Oc1ccc2ncncc2c1,3.12
22,O=C1Nc2cncnc2N/C1=C1/Nc2ncncc2NC1=O,1
23,CC1CCN(O)C1(C)C (configuration not stated),5.9
24,CCOc1ccc2nccc([C@@H](O)[C@@H]3C[C@H]4CC[NH+]3C[C@@H]4CC)c2c1,4.05

row,SMILES,pKa
1,CCN(C#N)CC,-2
2,CC1CC2CCN1CC2 (configuration not stated),11.3
3,Nc1cnc2ccccc2n1,3.93
4,O=[PH]([O-])C([NH2+]Cc1cccnc1)c1ccccc1O (configuration not stated),3.25
5,[O-][n+]1ccc2ccccc2c1,1.01
6,c1ccc2nccnc2c1,0.64
7,Cc1ccnc([S-])n1,8
8,CCCCCCCCCCCCCCCC[NH+](CCCCCCCCCCCCCCCC)CCn1ccnc1,4
9,CC(C)NCCC#N,8
10,Fc1cccnc1,2.97
11,C=CC1CN2CCC1C[C@H]2C(=O)[O-] (some centres not stated),10.6
12,N[C@@H](Cc1nc[nH]c1I)C(=O)[O-],8.62
13,c1ccc(Nc2ccccc2)cc1,0.76
14,NCc1ccc(C(=O)[O-])cc1,9.64
15,O=C([O-])[C@@H](NCC[NH2+][C@@H](C(=O)[O-])c1ccccc1O)c1ccccc1O,6.36
16,N=c1c2ccccc2[nH]c2ccccc12,9.99
17,COc1ccc(/C=N/c2ncc3nc[nH]c3n2)cc1,3.86
18,Nc1nc([Se-])c2ncn([C@H]3O[C@@H](CO)[C@H](O)[C@@H]3O)c2n1,7.68
19,CCCN(CCC)c1ccc([N+](=O)[O-])cc1,1.06
20,CN(C)CCCO,9.76
21,[NH3+]Cc1nc2ccccc2[nH]1,3.28
22,Oc1cccc2nccnc12,0.85
23,Cc1ccccc1C(=NCC[NH+](C)C)c1ccccc1C,2.82
24,OCCN(CCc1nnn[n-]1)CCc1nnn[n-]1,8.9

row,SMILES,pKa
1,CN(C)CCC(=O)[O-],9.85
2,CN(C)c1cccc2c(S(=O)(=O)[N-]CCN3CCNCCNCCNCC3)cccc12,11.8
3,COC(=O)[C@@H]1CSCN1,3.92
4,CCC(O)CN(C)CC(O)CC (configuration not stated),9
5,c1ccc(CC2CCCN2)cc1 (configuration not stated),10.3
6,CCCNCC(=O)Nc1c(C)cccc1C,8.01
7,O=C1CN(C(=O)c2ccccc2)C(=S)N1,-6.6
8,N[C@H]1CCCC[C@@H]1O,9.35
9,CN(C)CC(Cl)CCl (configuration not stated),7.5
10,CN1CCc2cccc(c2)CCc2ccc1cc2,6.76
11,NNC(=O)c1cccc(N)c1,3.75
12,[S-]c1cccc2cccnc12,8.29
13,COc1ccc(N)cc1Br,4.09
14,OC[C@@H]1O[C@H](n2cnc3ccccc32)[C@@H](O)[C@H](O)[C@H]1O,4.01
15,COc1ccc(NCO)cc1,3.72
16,Cc1ccc(N=C2C=CC(=N)C=C2)c(N)c1,4.2
17,[NH3+]CCC(=O)NC(Cc1c[nH]cn1)C(=O)[O-] (configuration not stated),7.08
18,c1ccc(Oc2ccccn2)cc1,2.35
19,CCCCOC(=O)c1ccc(N)cc1,2.47
20,C#CC(C)(C)N(CC)C(C)(C)C,9.6
21,Nc1nc2ccccc2[nH]1,7.49
22,CCCCCCCCCCNCc1ccc(C)cc1,9.48
23,CC(C)([NH3+])CN,6.79
24,NC(=S=O)c1ccccc1,0.8

row,SMILES,pKa
1,Cc1cc([O-])[nH+]c([O-])n1,9.29
2,Cc1ccccc1/C(=N\CCC[NH+](C)C)c1cccc2ccccc12,4.14
3,C[n+]1c([O-])c([O-])nc2ccccc21,9.74
4,CCCCCCCP(=O)(CCCCCCC)CCCCCCC,4.65
5,Nc1ccccc1-c1ccccc1,3.81
6,N=C(c1ccccc1)c1ccccc1,6.82
7,C[Si](C)(C)OC1CN(Cc2ccc(F)cc2)C1,7.91
8,CC1CCCC(C(=O)[O-])N1 (configuration not stated),10.4
9,Cc1cc(N)cc(C)c1C(=O)NCCN1CCOCC1,5.96
10,Nc1ccnc([S-])n1,10.6
11,CC1/C(=N/O)C[C@@H]2N=C(c3ccccc3)O[C@@]13[C@@H]1OC(=O)[C@H](C)[C@H]1CC[C@]23C (some centres not stated),4.7
12,Nc1ccc2c(c1)Cc1c(F)cccc1-2,3.54
13,CC1[C@H](N)[C@H]1[NH3+] (some centres not stated),5.9
14,C=CCOc1nc(N)nc(N)n1,3.43
15,N/C(=N\O)c1ccccc1,4.97
16,CC=O,-0.57
17,c1ccc(CSc2nc(SCc3ccccc3)c(-c3ccccc3)[nH]2)cc1,2.7
18,Nc1cccc2c1nnn2[C@@H]1C[C@@H](O)[C@H](CO)O1,1.9
19,N#Cc1ccc2c(c1)CCN2,2.8
20,CC(CC(C#N)(c1ccccc1)c1ccccc1)N1CCOCC1 (configuration not stated),6.1
21,CCc1ccc(/N=N/c2ccc(N(C)C)cc2)cc1CC,2.58
22,c1cnc2c(c1)ccc1c3c(cnc12)CCC3,5.78
23,CCOC(=O)c1cnc2c([N+](=O)[O-])cccc2c1[O-],8.9
